Source: patent US7384927B2, “Alkylated porphyrins as pesticides acting both in the presence and absence of light” (priority 2003, dated 2008)

Experiments:
Type in all cases: in vivo
[1] = test system: Bactrocera oleae (olive fly); test: Uptake of alkylated porphyrins by flies fed porphyrin-containing bait; settings: B. oleae
Description: (§1) Porphyrins: • a) meso[tri(N-methyl-pyridyl), mono(N-dodecyl-pyridyl)]porphine (abbr.: C12) • b) meso[tri(N-methyl-pyridyl), mono(N-tetradecyl-pyridyl)]porphine (abbr.: C14) • c) meso[tri(N-methyl-pyridyl), mono(N-octadecyl-pyridyl)]porphine (abbr.: C18) Bait: Aqueous solution containing 10% sucrose and 1% autolysed yeast Flies: • a) Ceratitis capitata (fruit fly) age: 1 week; weight: 5-6 mg • b) Bactrocera oleae (olive fly) age: 10 days; weight: 4-4.5 mg • c) Stomoxis calcitrans (stable fly) age: 10 days; weight: 12 mg Irradiation: • a) High pressure halogen lamp, equipped with infrared and UV filters, emission 360-850 nm, operated at intensities in the 760-2,000 μE s^−1m^−2 range • b) Sunlight, mid June at Padua latitude, average intensity of […] μE s^−1m^−2 with minimum and maximum values of 950 and, respectively, 1,380 μE s^−1m^−2
(§2) An appropriate number of flies (50 flies per each experiment) was caged in 115×55×70 mm Plexiglas cages with several holes (ø=0.5 mm) and starved for 36 h. Then, depending on the protocol to be adopted for each specific experiment, the flies were fed with the bait (10% sucrose and 1% autolysed yeast in neutral aqueous solution), which was either porphyrin-free or added with a predetermined concentration of the porphyrin. These flies were then used in the various experimental sessions.
(§3) At predetermined times, the flies were sacrificed by freezing; the dead flies were then homogenized with a Polytron in 10 ml of a 2% aqueous solution of sodium dodecylsulphate (SDS). The suspension was centrifuged for 10 min at 2,000 rpm, the pellet was discarded and known aliquots of the supernatant were diluted by means of a chloroform/methanol binary mixture (1/2, v/v). The porphyrin concentration was measured by reading the fluorescence emitted at wavelengths above 630 nm and interpolating the emission intensity with a calibration plot obtained with known amounts of the porphyrin. The results were expressed as nanomoles of porphyrin recovered per fly.

[2] = test system: Ceratitis capitata (fruit fly); test: as above; settings: C. capitata
Description: as §1, §2, §3

[3] = test system: Stomoxis calcitrans (stable fly); test: as above; settings: S. calcitrans
Description: as §1, §2, §3

[4] = test system: Bactrocera oleae (olive fly); test: Release of alkylated porphyrin from flies after feeding with bait interrupted; settings: B. oleae, 1.25 μM porphyrin in the bait
Description: as §2, §3

[5] = test system: Ceratitis capitata (fruit fly); test: as above; settings: C. capitata, 1.25 μM porphyrin in the bait
Description: as §2, §3

[6] = test system: Stomoxis calcitrans (stable fly); test: as above; settings: S. calcitrans, 1.25 μM porphyrin in the bait
Description: as §2, §3

[7] = test system: Ceratitis capitata flies; test: Insecticidal action in the dark: fly survival after porphyrin bait; settings: dark, fed 24 h, survival 12 h after change to porphyrin-free bait
Description: For comparison, data obtained with two conventional porphyrins (as those described in WO 97/29637) offered to the insects for 24 h at a 3.0 and 8.1 μmolar concentration in the same bait are also shown. In all cases, the survival was determined 12 hours after changing food supply from a porphyrin-containing to a porphyrin-free bait. […] These flies were then used in the various experimental sessions. […] The number of survivors was evaluated 12 h after switching from administration of a porphyrin-containing bait to a porphyrin-free bait. In none of the experiments was mortality or any apparent toxic effect observed in control flies (flies not fed with porphyrin, see survival at 0 μM porphyrin concentration).

[8] = test system: Bactrocera oleae flies; test: as above; settings: fed 24 h, survival 12 h after change to porphyrin-free bait
Description: (§4) These flies were then used in the various experimental sessions. […] The number of survivors was evaluated 12 h after switching from administration of a porphyrin-containing bait to a porphyrin-free bait. In none of the experiments was mortality or any apparent toxic effect observed in control flies (flies not fed with porphyrin, see survival at 0 μM porphyrin concentration).

[9] = test system: Stomoxis calcitrans flies; test: as above; settings: fed 24 h, survival 12 h after change to porphyrin-free bait
Description: as §4

[10] = test system: Ceratitis capitata flies; test: Photoinsecticidal action: fly survival after bait and sunlight irradiation; settings: 3 μM in bait, 12 h after feeding, survival 1 h after irradiation
Description: as §1
The survival was evaluated 1 h after the end of irradiation.
as §2

[11] = exposure time to bait 3 h, porphyrin in bait 1.24 μM
[12] = exposure time to bait 12 h, porphyrin in bait 1.24 μM
[13] = exposure time to bait 24 h, porphyrin in bait 1.24 μM
[14] = porphyrin concentration in bait 0.75 (μmoles), feeding 24 h
[15] = porphyrin concentration in bait 1.25 (μmoles), feeding 24 h
[16] = porphyrin concentration in bait 2.10 (μmoles), feeding 24 h
[17] = porphyrin concentration in bait 3.50 (μmoles), feeding 24 h
[18] = porphyrin concentration in bait 6.00 (μmoles), feeding 24 h

## CCCCCCCCCCCC[n+]1ccc(-c2c3nc(c(-c4cc[n+](C)cc4)c4ccc([nH]4)c(-c4cc[n+](C)cc4)c4nc(c(-c5cc[n+](C)cc5)c5ccc2[nH]5)C=C4)C=C3)cc1 [C12, meso[tri(N-methyl-pyridyl), mono(N-dodecyl-pyridyl)]porphine]
[1]; [11]
  Recoveries (nmoles of porphyrin per fly): 0.8 nmoles of porphyrin per fly
[1]; [12]
  Recoveries (nmoles of porphyrin per fly): 2.6 nmoles of porphyrin per fly
[1]; [13]
  Recoveries (nmoles of porphyrin per fly): 3.2 nmoles of porphyrin per fly
[1]; [14]
  Recoveries (nmoles of porphyrin per fly): 2.7 nmoles of porphyrin per fly
[1]; [15]
  Recoveries (nmoles of porphyrin per fly): 3.2 nmoles of porphyrin per fly
[1]; [16]
  Recoveries (nmoles of porphyrin per fly): 6.5 nmoles of porphyrin per fly
[1]; [17]
  Recoveries (nmoles of porphyrin per fly): 9.3 nmoles of porphyrin per fly
[1]; [18]
  Recoveries (nmoles of porphyrin per fly): 10.6 nmoles of porphyrin per fly
[2]; [11]
  Recoveries (nmoles of porphyrin per fly): 1.2 nmoles of porphyrin per fly
[2]; [12]
  Recoveries (nmoles of porphyrin per fly): 3.9 nmoles of porphyrin per fly
[2]; [13]
  Recoveries (nmoles of porphyrin per fly): 4.1 nmoles of porphyrin per fly
[2]; [14]
  Recoveries (nmoles of porphyrin per fly): 2.9 nmoles of porphyrin per fly
[2]; [15]
  Recoveries (nmoles of porphyrin per fly): 4.1 nmoles of porphyrin per fly
[2]; [16]
  Recoveries (nmoles of porphyrin per fly): 7.3 nmoles of porphyrin per fly
[2]; [17]
  Recoveries (nmoles of porphyrin per fly): 9.1 nmoles of porphyrin per fly
[2]; [18]
  Recoveries (nmoles of porphyrin per fly): 12.5 nmoles of porphyrin per fly
[3]; [11]
  Recoveries (nmoles of porphyrin per fly): 1.4 nmoles of porphyrin per fly
[3]; [12]
  Recoveries (nmoles of porphyrin per fly): 3.2 nmoles of porphyrin per fly
[3]; [13]
  Recoveries (nmoles of porphyrin per fly): 3.7 nmoles of porphyrin per fly
[3]; [14]
  Recoveries (nmoles of porphyrin per fly): 2.5 nmoles of porphyrin per fly
[3]; [15]
  Recoveries (nmoles of porphyrin per fly): 3.7 nmoles of porphyrin per fly
[3]; [16]
  Recoveries (nmoles of porphyrin per fly): 6.0 nmoles of porphyrin per fly
[3]; [17]
  Recoveries (nmoles of porphyrin per fly): 9.0 nmoles of porphyrin per fly
[3]; [18]
  Recoveries (nmoles of porphyrin per fly): 9.7 nmoles of porphyrin per fly
[4]; 12 h after feeding interrupted
  Recoveries (nmoles of porphyrin per fly), release: 2.5 nmoles of porphyrin per fly
[4]; 24 h after feeding interrupted
  Recoveries (nmoles of porphyrin per fly), release: 1.4 nmoles of porphyrin per fly
[4]; 48 h after feeding interrupted
  Recoveries (nmoles of porphyrin per fly), release: 0.8 nmoles of porphyrin per fly
[5]; 12 h after feeding interrupted
  Recoveries (nmoles of porphyrin per fly), release: 2.6 nmoles of porphyrin per fly
[5]; 24 h after feeding interrupted
  Recoveries (nmoles of porphyrin per fly), release: 1.1 nmoles of porphyrin per fly
[5]; 48 h after feeding interrupted
  Recoveries (nmoles of porphyrin per fly), release: 0.7 nmoles of porphyrin per fly
[6]; 12 h after feeding interrupted
  Recoveries (nmoles of porphyrin per fly), release: 2.8 nmoles of porphyrin per fly
[6]; 24 h after feeding interrupted
  Recoveries (nmoles of porphyrin per fly), release: 2.0 nmoles of porphyrin per fly
[6]; 48 h after feeding interrupted
  Recoveries (nmoles of porphyrin per fly), release: 0.9 nmoles of porphyrin per fly
[7]; 0.75 μM in bait
  Survival (% of control untreated flies): 100 % of control untreated flies
[7]; 1.25 μM in bait
  Survival (% of control untreated flies): 73 % of control untreated flies
[7]; 2.10 μM in bait
  Survival (% of control untreated flies): 58 % of control untreated flies
[7]; 3.00 μM in bait
  Survival (% of control untreated flies): 42 % of control untreated flies
[7]; 5.00 μM in bait
  Survival (% of control untreated flies): 38 % of control untreated flies
[7]; 8.10 μM in bait
  Survival (% of control untreated flies): 35 % of control untreated flies
[8]; 0.75 μM in bait
  Survival (% of control untreated flies): 100 % of control untreated flies
[8]; 1.25 μM in bait
  Survival (% of control untreated flies): 100 % of control untreated flies
[8]; 2.10 μM in bait
  Survival (% of control untreated flies): 85 % of control untreated flies
[8]; 3.00 μM in bait
  Survival (% of control untreated flies): 72 % of control untreated flies
[8]; 5.00 μM in bait
  Survival (% of control untreated flies): 58 % of control untreated flies
[8]; 8.10 μM in bait
  Survival (% of control untreated flies): 51 % of control untreated flies
[9]; 0.75 μM in bait
  Survival (% of control untreated flies): 100 % of control untreated flies
[9]; 1.25 μM in bait
  Survival (% of control untreated flies): 82 % of control untreated flies
[9]; 2.10 μM in bait
  Survival (% of control untreated flies): 64 % of control untreated flies
[9]; 3.00 μM in bait
  Survival (% of control untreated flies): 47 % of control untreated flies
[9]; 5.00 μM in bait
  Survival (% of control untreated flies): 29 % of control untreated flies
[9]; 8.10 μM in bait
  Survival (% of control untreated flies): 16 % of control untreated flies
[10]; sunlight (average 1150 μE s^−1m^−2) 15 min
  Survival (% of control untreated flies): 33 % of control untreated flies
[10]; sunlight (average 1150 μE s^−1m^−2) 30 min
  Survival (% of control untreated flies): 17 % of control untreated flies
[10]; sunlight (average 1150 μE s^−1m^−2) 45 min
  Survival (% of control untreated flies): 10 % of control untreated flies
[10]; sunlight (average 1150 μE s^−1m^−2) 60 min
  Survival (% of control untreated flies): 2 % of control untreated flies
